Patent publication US8163732B2, “Tricyclic heteroaryl compounds useful as inhibitors of Janus kinase” (Vertex Pharmaceuticals Incorporated, priority 2005, dated 2012)

What was measured:
JAK-2 = JAK-2 (Homo sapiens, UniProt O60674); experiment: JAK-2 inhibition assay; assay type: biochemical
JAK-3 = biological target: T1, JAK-3 (Homo sapiens, UniProt P52333); experiment: JAK-3 inhibition assay; assay type: biochemical
T1 sequence (P52333 1-1124): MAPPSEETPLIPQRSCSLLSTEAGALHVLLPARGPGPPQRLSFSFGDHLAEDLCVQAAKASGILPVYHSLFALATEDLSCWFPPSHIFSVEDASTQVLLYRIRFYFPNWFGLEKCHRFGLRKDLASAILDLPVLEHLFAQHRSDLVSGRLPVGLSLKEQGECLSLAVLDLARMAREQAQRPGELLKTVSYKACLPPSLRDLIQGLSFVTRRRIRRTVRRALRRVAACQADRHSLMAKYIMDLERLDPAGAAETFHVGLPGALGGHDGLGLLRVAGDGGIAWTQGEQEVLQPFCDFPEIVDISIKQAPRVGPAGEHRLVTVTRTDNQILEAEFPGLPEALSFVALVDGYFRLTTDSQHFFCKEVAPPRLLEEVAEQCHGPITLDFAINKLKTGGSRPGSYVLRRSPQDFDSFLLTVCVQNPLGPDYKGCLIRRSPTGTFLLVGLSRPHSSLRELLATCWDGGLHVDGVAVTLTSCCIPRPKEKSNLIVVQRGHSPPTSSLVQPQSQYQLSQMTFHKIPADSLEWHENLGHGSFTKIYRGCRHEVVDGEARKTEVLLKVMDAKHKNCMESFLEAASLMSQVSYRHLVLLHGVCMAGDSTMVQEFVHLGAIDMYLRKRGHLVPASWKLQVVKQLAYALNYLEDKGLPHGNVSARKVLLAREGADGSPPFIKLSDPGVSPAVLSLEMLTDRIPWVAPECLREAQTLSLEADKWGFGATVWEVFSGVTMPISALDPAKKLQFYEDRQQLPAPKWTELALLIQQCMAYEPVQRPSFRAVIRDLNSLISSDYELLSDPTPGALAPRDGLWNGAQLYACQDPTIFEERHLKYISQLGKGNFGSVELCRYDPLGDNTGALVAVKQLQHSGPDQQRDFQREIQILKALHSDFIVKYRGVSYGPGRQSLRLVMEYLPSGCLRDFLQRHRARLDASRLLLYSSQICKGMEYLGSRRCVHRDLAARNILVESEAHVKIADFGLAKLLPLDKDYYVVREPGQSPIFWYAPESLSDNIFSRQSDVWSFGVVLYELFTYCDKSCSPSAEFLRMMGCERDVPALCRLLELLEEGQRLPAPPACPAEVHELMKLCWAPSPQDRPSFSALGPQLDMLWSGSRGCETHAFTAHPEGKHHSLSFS
Experimental: Compounds were screened for their ability to inhibit JAK using the assay shown below. Reactions were carried out in a kinase buffer containing 100 mM HEPES (pH 7.4), 1 mM DTT, 10 mM MgCl2, 25 mM NaCl, and 0.01% BSA.
Substrate concentrations in the assay were 5 μM ATP (200 μCi/μmole ATP) and 1 μM poly(Glu)4Tyr. Reactions were carried out at 25° C. and 1 nM JAK-3.
To each well of a 96 well polycarbonate plate was added 1.5 μL of a candidate JAK-3 inhibitor along with 50 μL of kinase buffer containing 2 μM poly(Glu)4Tyr and 10 μM ATP. This was then mixed and 50 μL of kinase buffer containing 2 nM JAK-3 enzyme was added to start the reaction. After 20 minutes at room temperature (25° C.), the reaction was stopped with 50 μL of 20% trichloroacetic acid (TCA) that also contained 0.4 mM ATP. The entire contents of each well were then transferred to a 96 well glass fiber filter plate using a TomTek Cell Harvester. After washing, 60 μL of scintillation fluid was added and ^33P incorporation detected on a Perkin Elmer TopCount. After removing the mean background values for all of the data points, the data were fit using Prism software to obtain a Ki value (app).

JAK-2, sequence (O60674 whole entry): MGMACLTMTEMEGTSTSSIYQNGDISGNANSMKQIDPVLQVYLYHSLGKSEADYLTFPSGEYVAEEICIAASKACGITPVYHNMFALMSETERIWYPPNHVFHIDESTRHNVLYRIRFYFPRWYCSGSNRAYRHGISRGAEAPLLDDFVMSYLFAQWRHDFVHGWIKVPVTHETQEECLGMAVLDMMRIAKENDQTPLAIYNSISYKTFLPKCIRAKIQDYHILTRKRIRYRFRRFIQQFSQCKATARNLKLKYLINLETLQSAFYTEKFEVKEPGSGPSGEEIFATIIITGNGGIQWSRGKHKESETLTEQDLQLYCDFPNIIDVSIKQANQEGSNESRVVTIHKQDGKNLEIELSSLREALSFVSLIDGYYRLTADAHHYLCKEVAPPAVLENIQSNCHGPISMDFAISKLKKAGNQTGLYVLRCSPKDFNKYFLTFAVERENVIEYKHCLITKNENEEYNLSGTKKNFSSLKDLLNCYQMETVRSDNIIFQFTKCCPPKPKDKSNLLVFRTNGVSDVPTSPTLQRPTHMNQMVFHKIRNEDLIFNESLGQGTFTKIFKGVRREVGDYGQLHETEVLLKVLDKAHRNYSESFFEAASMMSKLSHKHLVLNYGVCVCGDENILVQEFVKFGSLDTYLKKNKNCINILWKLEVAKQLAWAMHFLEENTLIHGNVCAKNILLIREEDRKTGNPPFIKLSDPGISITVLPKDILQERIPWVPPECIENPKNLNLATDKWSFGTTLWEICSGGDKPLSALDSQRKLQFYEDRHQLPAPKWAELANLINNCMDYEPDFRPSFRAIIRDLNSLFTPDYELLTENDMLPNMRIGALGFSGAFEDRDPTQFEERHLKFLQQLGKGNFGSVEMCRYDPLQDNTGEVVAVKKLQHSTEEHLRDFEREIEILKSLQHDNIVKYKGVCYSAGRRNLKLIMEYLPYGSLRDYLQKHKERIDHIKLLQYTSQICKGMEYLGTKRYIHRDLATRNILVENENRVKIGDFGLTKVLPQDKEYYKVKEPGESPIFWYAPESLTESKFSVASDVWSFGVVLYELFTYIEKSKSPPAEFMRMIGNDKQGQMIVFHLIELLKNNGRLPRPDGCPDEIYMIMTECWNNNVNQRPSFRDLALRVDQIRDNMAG

SMILES | Ki (JAK-2) | Ki (JAK-3)
O=C(OCc1ccccc1)N1CCC(C2Nc3ccccc3-c3ccnc4[nH]cc2c34)CC1 (stereo not drawn) [Compound 89] | 0.25 to 2.5 µM | > 2.5 µM
c1ccc2c(c1)NC(C1CCNCC1)c1c[nH]c3nccc-2c13 (stereo not drawn) [Compound 90] | 0.25 to 2.5 µM | 0.25 to 2.5 µM
Nc1ccc(C2=Nc3ccccc3-c3ccnc4[nH]cc2c34)cc1 [Compound 94] | < 0.25 µM | ≤ 0.25 µM
Cn1cc2c3c(ccnc31)-c1cccnc1NC2c1ccc(O)c(Cl)c1 (stereo not drawn) [Compound 95] | < 0.25 µM | ≤ 0.25 µM
Cn1cc2c3c(ccnc31)-c1cccnc1NC2c1ccc(O)cc1 (stereo not drawn) [Compound 96] | < 0.25 µM | 0.25 to 2.5 µM
Oc1ccc(C2Nc3ncccc3-c3ccnc4[nH]cc2c34)cc1 (stereo not drawn) [Compound 97] | < 0.25 µM | ≤ 0.25 µM
COC(=O)Nc1ccc(C2c3c[nH]c4nccc(c34)-c3ccccc3N2C(=O)OC)cc1 (stereo not drawn) [Compound 100] | > 2.5 µM | 0.25 to 2.5 µM
COC(=O)Nc1ccc(C2c3cn(C(=O)OC)c4nccc(c34)-c3ccccc3N2C(=O)OC)cc1 (stereo not drawn) [Compound 101] | > 2.5 µM | > 2.5 µM
COC(=O)C1(c2ccc(N)cc2)Nc2ccccc2-c2ccnc3[nH]cc1c23 (stereo not drawn) [Compound 102] | > 2.5 µM | > 2.5 µM
C1=Nc2ccccc2-c2ccnc3[nH]cc1c23 [Compound 109] | 0.25 to 2.5 µM | 0.25 to 2.5 µM
Oc1ccc(C2=Nc3ccccc3-c3ccnc4[nH]cc2c34)cc1OC(F)(F)F [Compound 113] | < 0.25 µM | ≤ 0.25 µM
Cn1cc2c3c(ncnc31)-c1ccccc1NC2c1ccc(O)c(F)c1 (stereo not drawn) [Compound 117] | < 0.25 µM | ≤ 0.25 µM
c1ccc2c(c1)NC(c1ccc(-n3ccnc3)cc1)c1c[nH]c3nccc-2c13 (stereo not drawn) [Compound 119] | 0.25 to 2.5 µM | 0.25 to 2.5 µM

The next lines start with the values.

Ki (JAK-2) | Ki (JAK-3) | SMILES
< 0.25 µM | ≤ 0.25 µM | COc1cc(C2Nc3ccccc3-c3ncnc4[nH]cc2c34)ccc1O (stereo not drawn) [Compound 84]
0.25 to 2.5 µM | 0.25 to 2.5 µM | COc1cc(C2Nc3ccccc3-c3ncnc4[nH]cc2c34)cc(OC)c1O (stereo not drawn) [Compound 85]
> 2.5 µM | > 2.5 µM | O=[N+]([O-])c1ccc(C2Nc3ccccc3-c3ccnc4[nH]cc2c34)cc1 (stereo not drawn) [Compound 86]
> 2.5 µM | > 2.5 µM | COC(=O)c1ccc(C2Nc3ccccc3-c3ccnc4[nH]cc2c34)cc1 (stereo not drawn) [Compound 87]
< 0.25 µM | ≤ 0.25 µM | Nc1ccc(C2Nc3ccccc3-c3ccnc4[nH]cc2c34)cc1 (stereo not drawn) [Compound 93]
> 2.5 µM | 0.25 to 2.5 µM | COC(=O)Nc1ccc(C2Nc3ccccc3-c3ccnc4[nH]cc2c34)cc1 (stereo not drawn) [Compound 99]
0.25 to 2.5 µM | 0.25 to 2.5 µM | Oc1ccc(C2Nc3ccccc3-c3ccnc4[nH]cc2c34)cc1C(F)(F)F (stereo not drawn) [Compound 104]
< 0.25 µM | ≤ 0.25 µM | Oc1c(F)cc(C2Nc3ccccc3-c3ccnc4[nH]cc2c34)cc1F (stereo not drawn) [Compound 106]
> 2.5 µM | > 2.5 µM | CC(C)(C)c1cc(C2Nc3ccccc3-c3ccnc4[nH]cc2c34)cc(C(C)(C)C)c1O (stereo not drawn) [Compound 108]
> 2.5 µM | > 2.5 µM | O=C(O)c1cc(C2Nc3ccccc3-c3ccnc4[nH]cc2c34)ccc1O (stereo not drawn) [Compound 110]
> 2.5 µM | > 2.5 µM | COC(=O)c1cc(C2Nc3ccccc3-c3ccnc4[nH]cc2c34)ccc1O (stereo not drawn) [Compound 111]
< 0.25 µM | ≤ 0.25 µM | COc1cc(C2Nc3ccccc3-c3ccnc4[nH]cc2c34)cc(Cl)c1O (stereo not drawn) [Compound 112]
0.25 to 2.5 µM | 0.25 to 2.5 µM | Oc1ccc(C2Nc3ccccc3-c3ccnc4[nH]cc2c34)cc1OC(F)(F)F (stereo not drawn) [Compound 114]
< 0.25 µM | ≤ 0.25 µM | Oc1c(F)cc(C2Nc3ccccc3-c3ncnc4[nH]cc2c34)cc1F (stereo not drawn) [Compound 115]
